# Reference: US9216977B2 (The University of North Carolina at Chapel Hill, priority 2009, dated 2015)
# Read-outs that look alike come from different tables or passages of the source.
# Tests used:
# HCT-8 = test: in vitro screen against human tumor cell line HCT-8 (colon), GI50; assay type: cell-based
# DU145 = test: in vitro screen against human tumor cell line DU-145 (prostate), GI50; assay type: cell-based
# [1] = tested on: panel of cancer cell lines including A549 (lung), DU-145 (prostate), KB (nasopharyngeal), and HCT-8 (colon); test: cells; conditions: Homo sapiens
# KB = test: in vitro screen against human tumor cell line KB (nasopharyngeal), GI50; assay type: cell-based; conditions: for GI50: read-out: GI50 KB
# A549 = test: in vitro screen against human tumor cell line A549 (lung), GI50; assay type: cell-based
# KBvin = test: in vitro screen against KBvin cell line, GI50; assay type: cell-based; conditions: Homo sapiens
# [2] = tested on: panel of cancer cell lines including A549 (lung), DU-145 (prostate), KB (nasopharyngeal), and HCT-8 (colon)
# SKBR = test: in vitro screen against cancer cell line SKBR (breast), GI50; assay type: cell-based; conditions: Example 3, Table 1
# rats = conditions: rat, in vivo; cited from earlier work
# [3] = Homo sapiens, DU-145, Example 2, Table 3, 13-aza-cryptopleurines, read-out: GI50 DU145
# [4] = Homo sapiens, KB, Example 2, Table 3, 13-aza-cryptopleurines
# [5] = Table 3, cells marked (KBvin) in the HCT-8 column
# [6] = Homo sapiens, A549, Example 2, Table 3, 13-aza-cryptopleurines, read-out: GI50 A549
# [7] = Homo sapiens, DU-145, Example 3, Table 1, read-out: GI50 DU145
# [8] = Homo sapiens, KB, Example 3, Table 1
# [9] = Homo sapiens, A549, Example 3, Table 1, read-out: GI50 A549
# [10] = Example 2, Table 4, 12-aza-cryptopleurines
# [11] = Example 2, Table 4, 12-aza-cryptopleurines, read-out: GI50 A549
# [12] = Homo sapiens, DU-145, Example 2, Table 2, 12-aza-antofines, read-out: GI50 DU145
# [13] = Homo sapiens, KB, Example 2, Table 2, 12-aza-antofines
# [14] = Homo sapiens, A549, Example 2, Table 2, 12-aza-antofines, read-out: GI50 A549
compound,measurement,setting,value
"COc1ccc2c3c(c4cc(OC)c(OC)cc4c2c1)C[C@H]1CN(C)CN1C3 [Compound 3h, (S)-12-aza-12N-methyl-antofine]",GI50,"HCT-8; Example 2, Table 2, 12-aza-antofines, read-out: GI50 HCT-8",1000 nM
same,GI50,"DU145; Example 2, Table 2, 12-aza-antofines, read-out: GI50 DU145",2030 nM
same,GI50,[1]; read-out: range of activities (GI50) over the cell line panel,660 to 2030 nM
same,melting point,,182 to 184 °C
same,GI50,"KB; Example 2, Table 2, 12-aza-antofines",1720 nM
same,GI50,"A549; Example 2, Table 2, 12-aza-antofines, read-out: GI50 A549",660 nM
"COc1ccc2c3c(c4cc(OC)c(OC)cc4c2c1)CC1CN(Cc2ccccc2)CCN1C3 (stereo in doubt) [Compound 8n, (R)-13-aza-13N-benzyl-cryptopleurine]",GI50,DU145; [3],11900 nM
same,melting point,,86 to 88 °C
same,GI50,KB; [4],12100 nM
same,GI50,KBvin; [5],7640 nM
same,GI50,A549; [6],16400 nM
"COc1ccc2c3c(c4cc(OC)c(OC)cc4c2c1)C[C@H]1CC(=O)CN1C3 [Compound 8, (S)-12-oxo-antofine]",range of cytotoxicity / anticancer activity in words,[2],middle nM to low μM range
same,GI50,DU145; [7],710 nM
same,GI50,KB; [8],500 nM
same,GI50,"KBvin; KBVIN, Example 3, Table 1",430 nM
same,GI50,A549; [9],290 nM
"COc1ccc2c3c(c4cc(OC)c(OC)cc4c2c1)C[C@H]1CC[C@H](O)CN1C3 [Compound 19b, (12S,14aR)-12-hydroxyl-cryptopleurine]",range of cytotoxicity / anticancer activity in words,[2],low μM range
same,GI50,SKBR,6440 nM
same,GI50,DU145; [7],2250 nM
same,GI50,KB; [8],2250 nM
same,GI50,"KBvin; KBVIN, Example 3, Table 1",3070 nM
same,GI50,A549; [9],2510 nM
"COc1ccc2c3c(c4cc(OC)c(OC)cc4c2c1)C[C@H]1CCCCN1C3 [R-cryptopleurine, reference compound]",toxicity in animal tests,rats,quite toxic
same,GI50,HCT-8; read-out: GI50 HCT-8,1.09 nM
same,GI50,HCT-8; read-out: HCT-8 GI50,1.09 nM
same,GI50,DU145; read-out: DU145 GI50,1.59 nM
same,GI50,DU145; read-out: GI50 DU145,1.59 nM
same,KB GI50,KB,1.51 nM
same,GI50,KB,1.51 nM
same,GI50,A549; read-out: A549 GI50,1.38 nM
same,GI50,A549; read-out: GI50 A549,1.38 nM
"COc1ccc2c3c(c4cc(OC)c(OC)cc4c2c1)CC1CN(CC(C)C)CCN1C3 (stereo in doubt) [Compound 8m, (R)-13-aza-13N-isobutyl-cryptopleurine]",GI50,DU145; [3],12200 nM
same,melting point,,175 to 177 °C
same,GI50,KB; [4],11200 nM
same,GI50,KBvin; [5],9960 nM
same,GI50,A549; [6],12900 nM
"COc1ccc2c3c(c4cc(OC)c(OC)cc4c2c1)C[C@H]1CCN(CC(C)C)CN1C3 [Compound 11c, (S)-12-aza-12N-isobutyl-cryptopleurine]",GI50,"HCT-8; Homo sapiens, HCT-8, Example 2, Table 4, 12-aza-cryptopleurines, read-out: GI50 HCT-8",1360 nM
same,GI50,"DU145; Homo sapiens, DU-145, Example 2, Table 4, 12-aza-cryptopleurines, read-out: GI50 DU145",2300 nM
same,melting point,,177 to 179 °C
same,GI50,KB; [10],5060 nM
same,GI50,A549; [11],1520 nM
"COc1ccc2c3c(c4cc(OC)c(OC)cc4c2c1)C[C@H]1C[C@H](O)CCN1C3 [Compound 13b, (13R,14aS)-13-hydroxyl-cryptopleurine]",range of cytotoxicity / anticancer activity in words,[2],low nM range
same,GI50,SKBR,72 nM
same,GI50,DU145; [7],11 nM
same,GI50,KB; [8],23 nM
same,GI50,"KBvin; KBVIN, Example 3, Table 1",25 nM
same,GI50,A549; [9],22 nM
"COc1ccc2c3c(c4cc(OC)c(OC)cc4c2c1)C[C@H]1CCOCN1C3 [Compound 13, (S)-12-oxa-cryptopleurine]",GI50,"HCT-8; Homo sapiens, HCT-8, Example 2, Table 5, read-out: GI50 HCT-8",1450 nM
same,GI50,"DU145; Homo sapiens, DU-145, Example 2, Table 5, read-out: GI50 DU145",1820 nM
same,GI50,[1]; read-out: average GI50,1000 to 2000 nM
same,GI50,"KB; Homo sapiens, KB, Example 2, Table 5",1660 nM
same,GI50,"A549; Homo sapiens, A549, Example 2, Table 5, read-out: GI50 A549",1790 nM
"COc1ccc2c3c(c4cc(OC)c(OC)cc4c2c1)C[C@H]1CN(CCO)CN1C3 [Compound 3e, (S)-12-aza-12N-hydroxylethyl-antofine]",GI50,"HCT-8; Homo sapiens, HCT-8, Example 2, Table 2, 12-aza-antofines, read-out: GI50 HCT-8",10800 nM
same,GI50,DU145; [12],6360 nM
same,melting point,,210 to 212 °C
same,GI50,KB; [13],7830 nM
same,GI50,A549; [14],4410 nM
"COc1ccc2c3c(c4cc(OC)c(OC)cc4c2c1)C[C@H]1CCC(=O)CN1C3 [Compound 18, (R)-12-oxo-cryptopleurine]",GI50,SKBR,3340 nM
same,GI50,DU145; [7],1700 nM
same,GI50,KB; [8],734 nM
same,GI50,"KBvin; KBVIN, Example 3, Table 1",1480 nM
same,GI50,A549; [9],910 nM
"COc1ccc2c3c(c4cc(OC)c(OC)cc4c2c1)C[C@H]1C[C@H](O)CN1C3 [Compound 9b, (12S,13aS)-12-hydroxyl-antofine]",range of cytotoxicity / anticancer activity in words,[2],middle nM to low μM range
same,GI50,DU145; [7],1800 nM
same,GI50,KB; [8],1810 nM
same,GI50,"KBvin; KBVIN, Example 3, Table 1",2210 nM
same,GI50,A549; [9],2270 nM
"COc1ccc2c3c(c4cc(OC)c(OC)cc4c2c1)C[C@H]1CN(CCO)CCN1C3 [Compound 8j, (S)-13-aza-13N-hydroxylethyl-cryptopleurine]",GI50,"HCT-8; Homo sapiens, HCT-8, Example 2, Table 3, 13-aza-cryptopleurines, read-out: GI50 HCT-8",7410 nM
same,GI50,DU145; [3],12600 nM
same,melting point,,266 °C (dec.)
same,GI50,KB; [4],8620 nM
same,GI50,A549; [6],14100 nM
"COc1ccc2c3c(c4cc(OC)c(OC)cc4c2c1)C[C@H]1CN(C(C)=O)CCN1C3 [Compound 8d, (S)-13-aza-13N-acetyl-cryptopleurine]",GI50,"HCT-8; Homo sapiens, HCT-8, read-out: GI50 HCT-8",13800 nM
same,GI50,"DU145; Homo sapiens, DU-145, read-out: GI50 DU145",11900 nM
same,melting point,,123 to 125 °C
same,GI50,"KB; Homo sapiens, KB",15500 nM
same,GI50,"A549; Homo sapiens, A549, read-out: GI50 A549",11600 nM
"COc1ccc2c3c(c4cc(OC)c(OC)cc4c2c1)C[C@H]1C[C@@H](O)CCN1C3 [Compound 13a, (13S,14aS)-13-hydroxyl-eryptopleurine]",range of cytotoxicity / anticancer activity in words,[2],low nM range
same,GI50,SKBR,295 nM
same,GI50,DU145; [7],59 nM
same,GI50,KB; [8],43 nM
same,GI50,"KBvin; KBVIN, Example 3, Table 1",78 nM
same,GI50,A549; [9],72 nM
COc1cc2c3c(c4cc(OC)c(OC)cc4c2cc1OC)CN1CCC[C@@H]1C3 [tylophorine],generally non-toxic dose,rats,up to 500 mg/kg
"COc1ccc2c3c(c4cc(OC)c(OC)cc4c2c1)C[C@H]1C[C@@H](O)CN1C3 [Compound 9a, (12R,13aS)-12-hydroxyl-antofine]",range of cytotoxicity / anticancer activity in words,[2],middle nM to low μM range
same,activity of 12R isomer compared with 12S isomer (9b),[2]; Example 3,3 fold
same,GI50,DU145; [7],700 nM
same,GI50,KB; [8],780 nM
same,GI50,"KBvin; KBVIN, Example 3, Table 1",640 nM
same,GI50,A549; [9],610 nM
"COc1ccc2c3c(c4cc(OC)c(OC)cc4c2c1)CC1CN(Cc2ccccc2)CN1C3 (stereo in doubt) [Compound 3j, (R)-12-aza-12N-benzyl-antofine]",GI50,DU145; [12],4620 nM
same,melting point,,95 to 97 °C
same,GI50,KB; [13],3410 nM
same,GI50,"KBvin; Table 2, cells marked (KBvin) in the HCT-8 column",1870 nM
same,GI50,A549; [14],2680 nM
"COc1ccc2c3c(c4cc(OC)c(OC)cc4c2c1)CC1CCN(CC(C)C)CN1C3 (stereo in doubt) [Compound 11g, (R)-12-aza-12N-isobutyl-cryptopleurine]",GI50,"DU145; Example 2, Table 4, 12-aza-cryptopleurines, read-out: GI50 DU145",1660 nM
same,melting point,,175 to 177 °C
same,GI50,KB; [10],1450 nM
same,GI50,"KBvin; Table 4, cell marked (KBvin) in the HCT-8 column",7320 nM
same,GI50,A549; [11],5110 nM
"COc1ccc2c3c(c4cc(OC)c(OC)cc4c2c1)C[C@H]1CC[C@@H](O)CN1C3 [Compound 19a, (12R,14aR)-12-hydroxyl-cryptopleurine]",range of cytotoxicity / anticancer activity in words,[2],lower nM range
same,GI50,SKBR,348 nM
same,GI50,DU145; [7],66 nM
same,GI50,KB; [8],33 nM
same,GI50,"KBvin; KBVIN, Example 3, Table 1",45 nM
same,GI50,A549; [9],82 nM
